Test results: ChEMBL document CHEMBL3352750, “Novel indole based NNRTIs with improved potency against wild type and resistant HIV” (Bioorg Med Chem Lett, 2014)
Active and inactive are the calls of the source. The calls are words filed in the database; no cut-off is given here.

Tests used:
[1] = tested on: Human immunodeficiency virus 1; experiment: Antiviral activity against HIV1 containing reverse transcriptase M230I mutant infected in HEK293T cells by p24 ELISA based phenotypic assay; type: functional, organism-based; conditions: HEK-293T
[2] = tested on: Human immunodeficiency virus 1; experiment: Antiviral activity against HIV1 containing reverse transcriptase V106M mutant infected in HEK293T cells by p24 ELISA based phenotypic assay; type: functional, organism-based; conditions: HEK-293T
[3] = tested on: Human immunodeficiency virus 1; experiment: Antiviral activity against HIV1 containing reverse transcriptase G190A mutant infected in HEK293T cells by p24 ELISA based phenotypic assay; type: functional, organism-based; conditions: HEK-293T
[4] = tested on: Human immunodeficiency virus 1; experiment: Antiviral activity against HIV1 containing reverse transcriptase Y181C mutant infected in HEK293T cells by p24 ELISA based phenotypic assay; type: functional, organism-based; conditions: HEK-293T
[5] = Cytotoxicity against HEK293T cells; type: cell-based, HEK-293T; conditions: human
[6] = tested on: Human immunodeficiency virus 1; experiment: Antiviral activity against HIV1 containing reverse transcriptase K101P mutant infected in HEK293T cells by p24 ELISA based phenotypic assay; type: functional, organism-based; conditions: HEK-293T
[7] = tested on: Human immunodeficiency virus 1; experiment: Antiviral activity against HIV1 infected in HEK293T cells by p24 ELISA based phenotypic assay; type: functional, organism-based; conditions: Human immunodeficiency virus 1, HEK-293T
[8] = tested on: Human immunodeficiency virus 1; experiment: Antiviral activity against HIV1 containing reverse transcriptase K103N mutant infected in HEK293T cells by p24 ELISA based phenotypic assay; type: functional, organism-based; conditions: HEK-293T
[9] = tested on: Human immunodeficiency virus 1; experiment: Antiviral activity against HIV1 containing reverse transcriptase E138Q mutant infected in HEK293T cells by p24 ELISA based phenotypic assay; type: functional, organism-based; conditions: HEK-293T
[10] = tested on: Human immunodeficiency virus 1; experiment: Antiviral activity against HIV1 containing reverse transcriptase Y181I mutant infected in HEK293T cells by p24 ELISA based phenotypic assay; type: functional, organism-based; conditions: HEK-293T
[11] = tested on: Human immunodeficiency virus 1; experiment: Antiviral activity against HIV1; type: functional, organism-based

| IC50 [7] [nM] | SMILES | CC50 [5] [nM] | other results |
| --- | --- | --- | --- |
| 1150 | CCOC(=O)c1[nH]c2ccc(Cl)cc2c1C(O)c1ccccc1 (centres undefined) | 22700 | – |
| 4800 | CCOC(=O)c1[nH]c2ccc(Cl)cc2c1C1(c2ccccc2)CC1 | – | IC50 [11]: 85 nM |
| 30 | CCOC(=O)c1[nH]c2ccc(Cl)cc2c1C(OCC)c1ccccc1 (centres undefined) | 22800 | – |
| 712 | O=C(OCCO)c1[nH]c2ccc(Cl)cc2c1C1(c2ccccc2)CC1 | – | – |
| 209 | O=C(NCCO)c1[nH]c2ccc(Cl)cc2c1C1(c2ccccc2)CC1 | – | – |
| 4400 | NNC(=O)c1[nH]c2ccc(Cl)cc2c1C1(c2ccccc2)CC1 | – | – |

Continued, compound first:

| SMILES | IC50 [7] [nM] | CC50 [5] [nM] | other results |
| --- | --- | --- | --- |
| CCOC(=O)c1[nH]c2ccc(Cl)cc2c1C(OC)c1cc(C)cc(C)c1 (centres undefined) | 30 | 36500 | inhibition [1]: Active; inhibition [2]: Active; inhibition [3]: Active; inhibition [4]: inactive; inhibition [6]: Active; inhibition [8]: Active; inhibition [9]: Active; inhibition [10]: Active |
| CCOC(=O)c1[nH]c2ccc(Cl)cc2c1C(OC)c1ccccc1 (centres undefined) | 20 | 25300 | inhibition [2]: inactive; inhibition [3]: Active; inhibition [4]: inactive; inhibition [8]: inactive |
| COC(c1ccccc1)c1c(S(=O)(=O)C(F)(F)F)[nH]c2ccc(Cl)cc12 (centres undefined) | 1200 | 24200 | – |
| COC(c1cc(C)cc(C)c1)c1c[nH]c2ccc(Cl)cc12 (centres undefined) | 300 | 67700 | – |
| COC(c1ccccc1)c1c[nH]c2ccc(Cl)cc12 (centres undefined) | 2430 | 67000 | – |
| CCOC(=O)c1[nH]c2ccc(Cl)cc2c1C1(c2cccs2)CC1 | – | – | IC50 [11]: 65 nM |
| Cc1ccnc2c1NC(=O)c1cccnc1N2C1CC1 [NEVIRAPINE] | 120 | – | IC50 [11]: 100 nM |
